Results on 28 compounds are retold here after patent US8211916B2, “N- and O-substituted 4-[2-(diphenylmethoxy)-ethyl]-1-[(phenyl)methyl]piperidine analogs and methods of treating CNS disorders therewith” (Wayne State University, priority 2000, dated 2012).

Counter-ions that a name gives are not always drawn. Like-named read-outs stand apart in the source and are kept apart here.

One data set has as its target rat DAT (Rattus norvegicus, UniProt P23977). The data set can be described thus: Rat DAT binding, [3H]Win 35,428, striatal membranes. The conditions noted are these: read-out: DAT, IC50.
The target of another data set is T1, rat SERT (Rattus norvegicus, UniProt P31652).
T1 construct: from tissue; host or cells: rat striatum (membranes)
T1 sequence (P31652 whole entry): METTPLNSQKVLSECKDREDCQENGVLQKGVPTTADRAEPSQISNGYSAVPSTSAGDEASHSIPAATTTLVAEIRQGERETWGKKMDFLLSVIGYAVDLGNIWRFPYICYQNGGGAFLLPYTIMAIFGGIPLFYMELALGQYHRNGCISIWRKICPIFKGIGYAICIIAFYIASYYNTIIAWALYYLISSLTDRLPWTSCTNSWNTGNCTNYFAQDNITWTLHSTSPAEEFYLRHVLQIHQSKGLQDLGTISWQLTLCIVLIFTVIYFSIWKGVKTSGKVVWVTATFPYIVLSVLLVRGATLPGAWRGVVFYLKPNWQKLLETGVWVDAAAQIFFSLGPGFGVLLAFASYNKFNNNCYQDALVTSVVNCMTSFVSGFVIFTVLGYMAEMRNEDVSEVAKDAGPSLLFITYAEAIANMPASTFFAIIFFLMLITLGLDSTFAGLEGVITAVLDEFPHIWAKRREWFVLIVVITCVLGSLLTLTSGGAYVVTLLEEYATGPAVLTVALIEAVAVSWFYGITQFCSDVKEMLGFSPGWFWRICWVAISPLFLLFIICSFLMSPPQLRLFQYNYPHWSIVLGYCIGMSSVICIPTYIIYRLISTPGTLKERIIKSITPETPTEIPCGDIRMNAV
The data set can be described thus: Rat SERT binding, [3H]citalopram, striatal membranes. The note with it: Table 1; read-out: SERT, IC50.

For the next data set, the target named is T2, DAT (Rattus norvegicus, UniProt P23977).
T2 construct: from tissue; host or cells: rat striatum
T2 sequence (P23977 whole entry): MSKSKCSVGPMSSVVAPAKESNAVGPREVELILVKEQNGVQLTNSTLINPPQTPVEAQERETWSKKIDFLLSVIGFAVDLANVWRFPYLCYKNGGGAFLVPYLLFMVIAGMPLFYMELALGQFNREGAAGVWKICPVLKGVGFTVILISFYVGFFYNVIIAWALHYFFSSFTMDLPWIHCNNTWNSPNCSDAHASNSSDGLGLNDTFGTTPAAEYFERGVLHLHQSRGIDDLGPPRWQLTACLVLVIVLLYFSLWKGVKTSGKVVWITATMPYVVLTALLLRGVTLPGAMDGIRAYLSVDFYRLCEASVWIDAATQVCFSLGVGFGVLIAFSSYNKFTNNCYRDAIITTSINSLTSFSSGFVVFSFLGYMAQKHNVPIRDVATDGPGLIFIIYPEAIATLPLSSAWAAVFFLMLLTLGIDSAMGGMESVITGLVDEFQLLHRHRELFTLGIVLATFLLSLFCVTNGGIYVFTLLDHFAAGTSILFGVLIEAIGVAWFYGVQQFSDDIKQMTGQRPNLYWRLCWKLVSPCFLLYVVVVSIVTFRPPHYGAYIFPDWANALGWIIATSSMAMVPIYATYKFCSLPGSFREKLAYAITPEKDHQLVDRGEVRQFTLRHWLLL
The data set can be described thus: Uptake of [3H]DA by DAT, rat striatum. The class given is biochemical. The conditions noted are these: for Ki: [3H]DA uptake, rat striatum. The text has this:
Transporter assays. The affinity of test compounds in binding to rat DAT and in inhibiting monoamine uptake was monitored as described by us previously. […] Rat cerebral cortex was used for assessing uptake of [^3H]serotonin by SERT and hippocampus for uptake of [^3H]NE by NET. […] At lease five triplicate concentrations of each test compound were studied, spaced evenly around the IC50 value. The latter was estimated by nonlinear computer curve-fitting procedures and converted to Ki with the Cheng-Prusoff equation.

The mark [1] stands for this setting: Ki (DAT), inhibition of DA uptake.
The mark [2] stands for this setting: read-out: Ki (DAT), inhibition of DA uptake.

Sequence of rat DAT (P23977 whole entry): as above
Experimental for rat DAT: (§1) Briefly, rat striatal membranes were incubated with radioligand and inhibitor for 2 h on ice in a sodium phosphate buffer at a final Na^+ concentration of 30 nM, pH 7.4, at room temperature. The assays were terminated by filtration through glass fiber filtermats (Wallac, Inc., Gaithersburg, Md.), presoaked in 0.05% (v/v) polyethyleneimine, with a MACH3-96 Tomtec harvester (Wallac, Inc.). Filters were assayed for radioactivity in a Microbeta Plus liquid scintillation counter (Wallac, Inc.).
Experimental for rat SERT: as §1

For orientation: IC50 means the midpoint of a concentration-inhibition curve. Take `Fc1ccc(C(NCC2CCN(CCc3ccccc3)CC2)c2ccc(F)cc2)cc1` [Example 12, 4-[(Bis(4-fluorophenyl)methylamino)methyl]-1-[2-(phenyl)ethyl]piperidine]: the values for the IC50 on rat DAT and on rat SERT were 0.0653 ± 0.0032 µM and 1.1 ± 0.246 µM, respectively.
What is called Ki is the equilibrium dissociation constant of an inhibitor or competing ligand from its target. In turn, `OC(CN1CCN2CC1CCC2C(c1ccccc1)c1ccccc1)c1ccc(F)cc1` [Example 7c, (R)-2-((5S,8S)-8-benzhydryl-1,4-diazabicyclo[3.3.1]nonane-2-yl)-1-4-fluorophenyl)ethanol] displayed a Ki on DAT (setting [1]) of 0.0665 µM.
A word on the melting point: it is the temperature, or range, at which the solid turns liquid. Turning to `Fc1ccc(CN2CCC(CCOC(c3ccccc3)c3ccccc3)CC2)cc1F` (as salt: oxalate) [Example 2, 4-[2-(Diphenylmethoxy)ethyl]-1-[(3,4-difluorophenyl)methyl]piperidine], the melting point lay within 158 to 159 °C.
Turning to “1-((5S,8S)-8-benzhydryl-1,4-diazabicyclo[3.3.1]nonane-2-yl)-3-phenylpropan-2-ol [Example 6a]”, at DAT (setting [2]), the inhibition constant (Ki) came to 0.0829 µM.
With `Fc1cccc(CN2CCC(CCOC(c3ccccc3)c3ccccc3)CC2)c1` [Example 1, 4-[2-(Diphenylmethoxy)ethyl]-1-[(3-fluorophenyl)methyl]piperidine], the IC50 at rat DAT (Table 1) was 0.0234 ± 0.0038 µM; on rat SERT, 1.15 ± 0.0434 µM.
As for `OC1CN(Cc2ccc(F)cc2)CCC1CCOC(c1ccccc1)c1ccccc1` (racemic) (as salt: oxalate) [Example 16, racemic trans-3-hydroxy-4-[2-diphenylmethoxy)ethyl]-1-[(4-fluorophenyl)methyl]piperidine], the melting point was 143 to 150 °C.
With `O[C@H](CN[C@H]1CC[C@@H](C(c2ccccc2)c2ccccc2)NC1)Cc1ccccc1` [Example 4d, (S)-1-[(3S,6S)-6-benzhydrylpiperidin-3-ylamino)-3-phenylpropan-2-ol], at DAT (setting [2]), the Ki amounted to 0.0253 µM.
In the case of `Fc1ccc(CN2CCC(CNOC(c3ccccc3)c3ccccc3)CC2)cc1` (as salt: oxalate) [Example 7, 4-[((2-Diphenylmethoxy)amino)methyl]-1-[(4-fluorophenyl)methyl]piperidine], the melting point fell in the range of 154 to 155 °C.
As to `CN(CC1CCN(Cc2ccc(F)cc2)CC1)CC(c1ccccc1)c1ccccc1` (as salt: oxalate) [Example 13], the melting point fell in the range of 144 to 145 °C.
Take `O=C(Cc1ccccc1)N1CCC(CCOC(c2ccccc2)c2ccccc2)CC1` [Example 5, 4-[2-(Diphenylmethoxy)ethyl]-1-[(phenylmethyl)carbonyl]piperidine]: the values for the IC50 on rat DAT and on rat SERT were 2.16 ± 0.054 µM and above 1 µM, respectively.
Take `Fc1ccc(C(NCC2CCN(CCc3ccccc3)CC2)c2ccc(F)cc2)cc1` (as salt: HCl) [Example 12, 4-[(Bis(4-fluorophenyl)methylamino)methyl]-1-[2-(phenyl)ethyl]piperidine]: the melting point was in the range of 214 to 215 °C.
As to `CN(CCC1CCN(Cc2ccccc2)CC1)C(c1ccccc1)c1ccccc1` [Example 10, 4-[2-((Diphenylmethyl)-N-methylamino)ethyl]-1-(4-phenylmethyl)piperidine], the figures for the half-maximal inhibitory concentration (IC50) at rat DAT (Table 1) and at rat SERT were 0.213 ± 0.003 µM and 1.66 ± 0.469 µM, respectively.
For the compound `Fc1ccc(CN2CCC(CCNC(c3ccccc3)c3ccccc3)CC2)cc1F` (as salt: HCl) [Example 8, 4-[2-((Diphenylmethyl)amino)ethyl]-1-[(3,4-difluorophenyl)methyl]piperidine], the melting point lay within 280 to 281 °C.
Same read-out and setting: for `Fc1ccc(CN2CCC(CNCC(c3ccccc3)c3ccccc3)CC2)cc1` (as salt: HCl) [Example 11, 4-[[2-(Diphenyl)ethyl]aminomethyl]-1-[(4-fluorophenyl)methyl]piperidine] the value was 126 to 127 °C.
At DAT (setting [1]), `OC(CCN1CCN2CC1CCC2C(c1ccccc1)c1ccccc1)c1ccc(F)cc1` (single isomer, unassigned) [Example 11a] gave a Ki of 0.0418 µM.
As to `Fc1cccc(CN2CCC(CCOC(c3ccccc3)c3ccccc3)CC2)c1` (as salt: oxalate) [Example 1, 4-[2-(Diphenylmethoxy)ethyl]-1-[(3-fluorophenyl)methyl]piperidine], the melting point was 150 to 151 °C.
Still for that read-out and setting: for `CS(=O)(=O)Nc1ccc(CN2CCC(CCOC(c3ccccc3)c3ccccc3)CC2)cc1` (as salt: oxalate) [Example 6, 4-[2-(Diphenylmethoxy)ethyl]-1-[((4-methylsulfonylamino)phenyl)methyl]piperidine] the value was 122 to 124 °C; for `O=C1CN(Cc2ccc(F)cc2)CCC1CCOC(c1ccccc1)c1ccccc1` (racemic) (as salt: oxalate) (hydrate or solvate) [Example 18, racemic 3-Keto-4-[2-(diphenylmethoxy)ethyl]-1-[(4-fluorophenyl)methyl]piperidine], 104 to 109 °C.
With “1-((5S,8S)-8-benzhydryl-1,4-diazabicyclo[3.3.1]nonane-2-yl)-3-phenylpropan-2-ol [Example 6b]”, the Ki at DAT (setting [2]) was found to be 0.0168 µM.
On to `O[C@@H](CN[C@H]1CC[C@@H](C(c2ccccc2)c2ccccc2)NC1)Cc1ccccc1` [Example 4c, (R)-1-[(3S,6S)-6-benzhydrylpiperidin-3-ylamino)-3-phenylpropan-2-ol], for which the inhibition constant (Ki) on DAT (setting [2]) was 0.025 µM.
For the compound `CC(OCCC1CCN(Cc2ccc(F)cc2)CC1)c1ccccc1` (centres unmarked) [4-[((1-phenylethoxy)ethyl]-1-[(4-fluorophenyl)methyl]piperidine], the IC50 at rat DAT (Table 1) stood at 0.751 ± 0.0616 µM; on rat SERT it was 5.86 ± 0.595 µM.
The corresponding values for `CC(NCCC1CCN(Cc2ccc(F)cc2)CC1)c1ccccc1` (centres unmarked) [Example 14, 4[2-[(1-(phenyl)ethyl)amino]ethyl]-1-[(4-fluorophenyl)methyl]piperidine] are 0.295 ± 0.0409 µM and 0.963 ± 0.0385 µM.
On to `OC(CCN1CCN2CC1CCC2C(c1ccccc1)c1ccccc1)c1ccc(F)cc1` (single isomer, unassigned) [Example 11b], for which, at DAT (setting [1]), the Ki worked out at 0.00863 µM. For the same compound, the NET/DAT on DAT (uptake inhibition selectivity, norepinephrine vs dopamine) is 48.4. This compound also gave an SERT/DAT at DAT (uptake inhibition selectivity, serotonin vs dopamine) of 172.
With `CC(NCCC1CCN(Cc2ccc(F)cc2)CC1)c1ccccc1` (centres unmarked) (as salt: oxalate) [Example 14, 4[2-[(1-(phenyl)ethyl)amino]ethyl]-1-[(4-fluorophenyl)methyl]piperidine], the melting point lay in the range of 172 to 173 °C.
`FC(F)(F)c1ccc(CN2CCC(CCOC(c3ccccc3)c3ccccc3)CC2)cc1` [Example 3, 4-[2-(Diphenylmethoxy)ethyl]-1-[((4-trifluoromethyl)phenyl)methyl]piperidine]: the IC50 is 0.0321 ± 0.0021 µM on rat DAT and 2.26 ± 0.144 µM at rat SERT.
For the compound `CN(CC1CCN(Cc2ccc(F)cc2)CC1)CC(c1ccccc1)c1ccccc1` [Example 13], the IC50 turned out to be 0.094 ± 0.0125 µM on rat DAT (Table 1) and 2.52 ± 0.23 µM at rat SERT.
In the case of `N#Cc1ccc(CN2CCC(CCOC(c3ccccc3)c3ccccc3)CC2)cc1` (as salt: oxalate) [Example 4, 4-[2-(Diphenylmethoxy)ethyl]-1-[(4-cyanophenyl)methyl]piperidine], the melting point fell in the range of 120 to 121 °C.
For `Ic1ccc(CN2CCC(CCOC(c3ccccc3)c3ccccc3)CC2)cc1` (as salt: oxalate) [Example 19, 4-[2-(diphenylmethoxy)ethyl]-1-[(4-iodophenyl)methyl]piperidine], the melting point fell in the range of 160 to 161 °C.
